Read-outs that look alike come from different tables or passages of the source.

Data set [1] is described as follows: Quantitative splicing assay (HTT), qPCR. Type of data set: cell-based, human. The settings on record: Homo sapiens, GM04724, 24 h, GM04724 lymphoblasts, read-out: HTT Splicing: E49-50 EC50. The method, boiled down:
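TaqMan qPCR on cell-lysate cDNA quantifies cryptic-exon inclusion from HTT intron 49. Lymphoblasts plated at 50,000 cells/well had received compound for 24 h, 0.15 nM-2.5 uM range, 0.1% DMSO.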

Data set [2] deals with mHTT protein in GM04724 (CAG 70/20) Huntington's disease patient lymphoblast cells. The data set is described as follows: mHTT protein assay, 2B7-MW1 assay via Mesoscale Discovery (MSD). Type of data set: cell-based, human. An outline of the steps:
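Signal from the 2B7-MW1 antibody pair on MSD, rising with polyQ length and smaller HTT fragments, measured mHTT after 48 h compound exposure (0.6 nM–10 μM) in GM04724 cells. A parallel replicate plate gave CellTiter Glo viability.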

Data set [3] concerns SMN protein in spinal muscular atrophy (SMA) patient fibroblasts (GM03813, Coriell). Briefly: SMN protein assay, Mesoscale Discovery (MSD). Type of data set: cell-based, human. The following applies: read-out: SMN2 protein EC50. An outline of the steps: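 Absolute SMN levels were quantified by MSD against an SMN protein standard curve (1 μg/ml to 19.5 pg/ml) run on each plate. Samples were lysates of GM03813 patient fibroblasts (7000 cells/well) treated 48 hours with compound doses from 2.5 μM down to 0.6 nM.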

The next data set deals with MDR1. Briefly: Blood-brain-barrier (BBB) penetration potential via MDCK-MDR1 permeability assay. The settings on record: dog, MDCK-MDR1, pH 7.4, MDCK-MDR1: Efflux.
For another data set, the system named is MDR1 (P-gp). The data set is described as above. The settings on record: dog; for Papp A→B at 120 min, 5 μM: MDCK-MDR1, pH 7.4, MDCK-MDR1: Papp A-B; for Papp B→A at 120 min, 5 μM: MDCK-MDR1, pH 7.4, MDCK-MDR1: Papp B-A.
The subject of data set [4] is MDR1-MDCK cell monolayers. The data set is described as above.
Data set [5] deals with SMN FL and SMN Δ7 in spinal muscular atrophy (SMA) patient fibroblasts (GM03813, Coriell). Briefly: Quantitative splicing assay (SMN), qPCR. The following applies: Homo sapiens, Fibroblast, 24 h, read-out: SMN2 Splicing FL EC50. The data set is classed as cell-based, human. The protocol:
Spinal muscular atrophy (SMA) patient fibroblasts (GM03813, Coriell) are plated in 96-well plates at 50,000 cells/well. […] Treated cells are lysed and cDNA synthesized using the Fast Advanced Cells-to-Ct kit (Thermofisher A35378) according to the manufacturer's instructions. 2 μL of each cDNA are used in qPCR reactions. […] Reactions are run in a Quant Studio 6 qPCR instrument with default settings.
On the technique in general: Real-time PCR tracks product formation cycle by cycle.

Setting [6] is: GM04724 Huntington's disease patient lymphoblasts.
Where [7] appears, read: SMA patient fibroblasts GM03813, 48 hours, MSD.
Setting [8] is: SMA patient fibroblasts GM03813, 24 h, qPCR.

Usually EC50 stands for the concentration that produces a half-maximal response. What is called efflux ratio is a quotient of directional permeabilities that is used to spot active efflux. Usually Papp A→B stands for the apparent permeability from the apical to the basolateral side of a cell layer. Lower therefore signals slow passage. What is called Papp B→A is how fast a substance crosses the layer from the basolateral side. Regarding `CCN(c1ccc(-c2ccc(-c3cn[nH]c3)cc2O)nn1)[C@@H]1C[C@H]2CC[C@H](N2)[C@@H]1F` [Compound 12A, 2-(6-(ethyl((1S,2S,3R,5R)-2-fluoro-8-azabicyclo[3.2.1]octan-3-yl)amino)pyridazin-3-yl)-5-(1H-pyrazol-4-yl)phenol], the concentration giving a half-maximal response (EC50) in data set [1] (qPCR) was in the range of 51 to 100 nM; in data set [2] (setting [6]) it was 16 to 50 nM; in data set [3] (setting [7]), 16 to 50 nM; in data set [5] (setting [8]), 101 to 500 nM. Further, the efflux ratio at 120 min, 5 μM in the data set with MDR1 (efflux ratio) was 27. In the data set on MDR1 (P-gp) (A-B direction), the Papp A→B at 120 min, 5 μM stood at 0.89 ×10⁻⁶ cm/s. In addition, in the data set with MDR1 (P-gp) (B-A direction), the Papp B→A at 120 min, 5 μM is 23.6 ×10⁻⁶ cm/s. Further, the “MDCK-MDR1: % Recov A-B” value in data set [4] (A-B direction) came out at 72%. In data set [4] (B-A direction), the “MDCK-MDR1: % Recov B-A” value was determined as 74%.
For the compound `Cc1nc2cc(O)c(-c3ccc(N(C)[C@H]4C[C@@H]5CC[C@@H](N5)[C@H]4F)nn3)cc2o1` [Compound 117B, 6-(6-(((1R,2R,3S,5S)-2-fluoro-8-azabicyclo[3.2.1]octan-3-yl)(methyl)amino)pyridazin-3-yl)-2-methylbenzo[d]oxazol-5-ol], the 50% effective concentration (EC50) in data set [1] was 16 to 50 nM; in data set [2] (GM04724 (CAG 70/20) Huntington's disease patient lymphoblasts) it was 0.01 to 15 nM; in data set [3] (SMA patient fibroblasts (GM03813), 48 hours), 0.01 to 15 nM; in data set [5] (SMA patient fibroblasts (GM03813)), 16 to 50 nM. In the data set with MDR1, the efflux ratio at 120 min, 5 μM amounted to 10. In the data set on MDR1 (P-gp) (A-B), the apical-to-basolateral permeability (Papp A→B) at 120 min, 5 μM is 4.32 ×10⁻⁶ cm/s. This compound also returned a Papp B→A at 120 min, 5 μM in the data set with MDR1 (P-gp) (B-A) of 45 ×10⁻⁶ cm/s. Further, the “MDCK-MDR1: % Recov A-B” value in data set [4] (A-B) stood at 90%. The “MDCK-MDR1: % Recov B-A” value in data set [4] (B-A) stood at 86%.
`CN(c1ccc(-c2cc(F)c(-c3ccoc(=O)c3)cc2O)nn1)[C@@H]1C[C@H]2CC[C@H](N2)[C@@H]1F` [Compound 17A, 4-(2-fluoro-4-(6-(((1S,2S,3R,5R)-2-fluoro-8-azabicyclo[3.2.1]octan-3-yl)(methyl)amino)pyridazin-3-yl)-5-hydroxyphenyl)-2H-pyran-2-one]: the half-maximal effective concentration (EC50) in data set [1] (qPCR), in data set [2] (setting [6]), in data set [3] (setting [7]) and in data set [5] (setting [8]) was 0.01 to 15 nM throughout. Moreover, the efflux ratio at 120 min, 5 μM in the data set with MDR1 (efflux ratio) came out at 19. For the same compound, in the data set with MDR1 (P-gp) (A-B direction), the Papp A→B at 120 min, 5 μM came out at 2.08 ×10⁻⁶ cm/s. In addition, the Papp B→A at 120 min, 5 μM with MDR1 (P-gp) (B-A direction) amounted to 39.2 ×10⁻⁶ cm/s. For the same compound, the “MDCK-MDR1: % Recov A-B” value in data set [4] (A-B direction) was 57%. In addition, the “MDCK-MDR1: % Recov B-A” value in data set [4] (B-A direction) amounted to 81%.
As to `CN(c1ccc(-c2cc3cccnc3cc2O)nn1)[C@@H]1C[C@H]2CCC[C@H](N2)[C@@H]1F` [Compound 41A, 6-(6-(((1S,2S,3R,5R)-2-fluoro-9-azabicyclo[3.3.1]nonan-3-yl)(methyl)amino)pyridazin-3-yl)quinolin-7-ol], the EC50 in data set [1] (qPCR) is 51 to 100 nM; in data set [2] (setting [6]), 0.01 to 15 nM; in data set [3] (setting [7]) it was 0.01 to 15 nM; in data set [5] (setting [8]) it was 16 to 50 nM. Moreover, in the data set on MDR1 (efflux ratio), the efflux ratio at 120 min, 5 μM is 24. In the data set with MDR1 (P-gp) (A-B direction), the apparent permeability from apical to basolateral (Papp A→B) at 120 min, 5 μM came out at 2 ×10⁻⁶ cm/s. In addition, the Papp B→A at 120 min, 5 μM in the data set on MDR1 (P-gp) (B-A direction) was 48.1 ×10⁻⁶ cm/s. The “MDCK-MDR1: % Recov A-B” value in data set [4] (A-B direction) came out at 64%. The “MDCK-MDR1: % Recov B-A” value in data set [4] (B-A direction) amounted to 98%.
Take `C#Cc1ccc(-c2ccc(N(C)[C@@H]3C[C@H]4CC[C@H](N4)[C@@H]3F)nn2)c(O)c1` [Compound 10A, 5-ethynyl-2-(6-(((1S,2S,3R,5R)-2-fluoro-8-azabicyclo[3.2.1]octan-3-yl)(methyl)amino)pyridazin-3-yl)phenol]: the EC50 in data set [1] (qPCR), in data set [2] (setting [6]), in data set [3] (setting [7]) and in data set [5] (setting [8]) was 0.01 to 15 nM each time. Moreover, in the data set on MDR1 (efflux ratio), the efflux ratio at 120 min, 5 μM was 2. In addition, in the data set on MDR1 (P-gp) (A-B direction), the apical-to-basolateral permeability (Papp A→B) at 120 min, 5 μM was determined as 11.6 ×10⁻⁶ cm/s. This compound also showed a Papp B→A at 120 min, 5 μM in the data set with MDR1 (P-gp) (B-A direction) of 19 ×10⁻⁶ cm/s. Besides, the “MDCK-MDR1: % Recov A-B” value in data set [4] (A-B direction) is 55%. In addition, in data set [4] (B-A direction), the “MDCK-MDR1: % Recov B-A” value worked out at 67%.

These data come from patent US12509460B2 (Skyhawk Therapeutics, Inc., priority 2019, dated 2025).
